Data taken from patent publication US20250326771A1, “PIPERAZINE DERIVATIVES USEFUL IN HIV THERAPY” (VIIV HEALTHCARE COMPANY, priority 2022, published 2025).
Read-outs that look alike come from different tables or passages of the source.

Assays:
[1] = test system: Jurkat HIV-luciferase clones; test: Jurkat latency reversal assay; type: cell-based; details: Homo sapiens, 48 h; Jurkat latency reversal assay potency; read-out: Jurkat pEC50 (converted)
Method in brief: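 Luminescence read-out: Steady-Glo after 48 h, 37° C, on mixed Jurkat HIV-luc clones (C16, 115, N6; 5,000 cells/well total). Cpd 14-pt 3-fold dilutions, duplicate, top 10 μM, 0.5% DMSO. EC50 + max % activation vs vehicle via 4-parameter fit.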

XIAP-BIR3 = XIAP-BIR3 (Homo sapiens (Human), UniProt P98170); test: BIR binding assay (FRET competition), XIAP BIR3; details: for XIAP BIR3 vs BIR2 separation window: fold separation (FS) for XIAP
Method in brief: (§1)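 Compounds tested as 15-point, 3-fold series displacing 200 nM AlexaFluor647-labelled SMAC peptide from His-tagged BIR domain (cIAP1-BIR3 50 nM; cIAP1-BIR2 and cIAP2-BIR2 325 nM; XIAP-BIR3 100 nM), pH 7.4, 60 min. Eu-W1024 (2 nM) added 30 min; emission ratio fitted for IC50.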

cIAP2-BIR2 = cIAP2-BIR2 (Homo sapiens (Human), UniProt Q13489); test: BIR binding assay (FRET competition), cIAP2 BIR2
Method in brief: as §1

cIAP1-BIR2 = cIAP1-BIR2 (Homo sapiens (Human), UniProt Q13490); test: BIR binding assay (FRET competition), cIAP1 BIR2
Method in brief: as §1

XIAP-BIR2 = XIAP-BIR2 (Homo sapiens (Human), UniProt P98170); test: BIR binding assay (FRET competition), XIAP BIR2
Method in brief: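 Competitive TR-FRET used His-tagged XIAP-BIR2 (200 nM) and 200 nM AlexaFluor647-labelled AVPIAQKSE SMAC peptide in HEPES buffer pH 7.4 with CHAPS, glycerol and DTT, incubated 60 min before 30 min with 2 nM Eu-W1024. The 615/665 nm ratio from a 15-point, 3-fold series was fit with a four-parameter model for IC50/pIC50.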

cIAP1-BIR3 = cIAP1-BIR3 (Homo sapiens (Human), UniProt Q13490); test: BIR binding assay (FRET competition), cIAP1 BIR3; details: for cIAP1 BIR3 vs BIR2 separation window: fold separation (FS) for cIAP1
Method in brief: as §1

cIAP2-BIR3 = cIAP2-BIR3 (Homo sapiens (Human), UniProt Q13489); test: BIR binding assay (FRET competition), cIAP2 BIR3; details: for cIAP2 BIR3 vs BIR2 separation window: fold separation (FS) for cIAP2
[2] = FRET competition, read-out: XIAP BIR2 (pIC50) (converted)
[3] = FRET competition binding, read-out: XIAP BIR2 (pIC50) (converted)

Chain of cIAP2-BIR3 (Q13489 238-349): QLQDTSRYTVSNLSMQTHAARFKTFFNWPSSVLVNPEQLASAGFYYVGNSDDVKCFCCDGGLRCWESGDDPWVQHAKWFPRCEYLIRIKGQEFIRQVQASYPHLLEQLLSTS
Chain of cIAP2-BIR2 (Q13489 158-242): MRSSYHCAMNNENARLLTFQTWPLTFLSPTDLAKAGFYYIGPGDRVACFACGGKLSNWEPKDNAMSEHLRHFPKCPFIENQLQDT
Chain of XIAP-BIR2 (P98170 124-240): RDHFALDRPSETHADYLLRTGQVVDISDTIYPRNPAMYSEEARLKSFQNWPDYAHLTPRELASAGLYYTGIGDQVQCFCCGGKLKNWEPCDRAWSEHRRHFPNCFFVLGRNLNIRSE
Chain of cIAP1-BIR2 (Q13490 173-257): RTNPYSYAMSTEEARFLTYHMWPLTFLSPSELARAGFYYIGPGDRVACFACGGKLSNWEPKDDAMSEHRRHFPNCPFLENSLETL
Chain of XIAP-BIR3 (P98170 241-356): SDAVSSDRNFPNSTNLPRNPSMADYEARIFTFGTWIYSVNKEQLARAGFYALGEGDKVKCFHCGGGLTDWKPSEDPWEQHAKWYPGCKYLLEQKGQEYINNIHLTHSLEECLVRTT
Chain of cIAP1-BIR3 (Q13490 253-363): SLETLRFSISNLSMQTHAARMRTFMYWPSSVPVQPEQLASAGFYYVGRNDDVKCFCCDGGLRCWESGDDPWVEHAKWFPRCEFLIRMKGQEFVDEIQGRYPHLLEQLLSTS

Row | Compound | EC50 [1] | IC50 (XIAP-BIR3) | XIAP BIR3 vs BIR2 separation window (XIAP-BIR3) | IC50 (cIAP2-BIR2) | IC50 (cIAP1-BIR2) | XIAP BIR2 (pIC50) (XIAP-BIR2; FRET competition binding) | IC50 (cIAP1-BIR3) | cIAP1 BIR3 vs BIR2 separation window (cIAP1-BIR3) | IC50 (cIAP2-BIR3) | cIAP2 BIR3 vs BIR2 separation window (cIAP2-BIR3) | IC50 (XIAP-BIR2; [2]) | IC50 (XIAP-BIR2) | IC50 (XIAP-BIR2; [3])
1 | C[C@@H]1CN(CC(=O)N2CC(C)(C)c3c2cc(Cc2ccc(F)cc2)c(=O)n3C)[C@@H](CN2CCO[C@H](COc3ccc(Cc4ccc(OC[C@@H]5CN(C[C@H]6CN[C@H](C)CN6CC(=O)N6CC(C)(C)c7c6cc(Cc6ccc(F)cc6)c(=O)n7C)CCO5)cc4)cc3)C2)CN1 [Example 115, 1,1′-(2,2′-((3R,3′R,6R,6′R)-(((2S,2'S)-(((methylenebis(4,1-phenylene))bis(oxy))bis(methylene))bis(morpholine-2,4-diyl))bis(methylene))bis(3-methylpiperazine-6,1-diyl))bis(acetyl))bis(6-(4-fluorobenzyl)-3,3,4-trimethyl-1,2,3,4-tetrahydro-5H-pyrrolo[3,2-b]pyridin-5-one)] | 63.1 to 316 nM | 31.6 to 501 nM | ++ (1,000>FS>100) | 10000 to 51300 nM | 3160 to 10000 nM | ++ (5.00<pIC50<=5.50) | 31.6 to 501 nM | +++ (10,000>FS>1,000) | 31.6 to 501 nM | +++ (10,000>FS>1,000) |  |  | 
2 | C[C@@H]1CN(CC(=O)N2CC(C)(C)c3[nH]c(=O)c(Cc4ccc(F)cc4)cc32)[C@@H](CN2CCN(C(=O)c3ccc(C(=O)N4CCN(C[C@H]5CN[C@H](C)CN5CC(=O)N5CC(C)(C)c6[nH]c(=O)c(Cc7ccc(F)cc7)cc65)[C@H](C)C4)cc3)C[C@H]2C)CN1 [Example 19, 1,1′-(2,2′-((3R,3′R,6R,6′R)-(((2R,2′R)-terephthaloylbis(2-methylpiperazine-4,1-diyl))bis(methylene))bis(3-methylpiperazine-6,1-diyl))bis(acetyl))bis(6-(4-fluorobenzyl)-3,3-dimethyl-1,2,3,4-tetrahydro-5H-pyrrolo[3,2-b]pyridin-5-one)] | 63.1 to 316 nM | 1.38 to 7.94 nM | ++++ (FS>10,000) | 22.4 to 1000 nM | 22.4 to 1000 nM | + (4.29<pIC50<=5.00) | 1.38 to 7.94 nM | +++ (10,000>FS>1,000) | 1.38 to 7.94 nM | +++ (10,000>FS>1,000) |  |  | 
3 | C[C@@H]1CN(CC(=O)N2CC(C)(C)c3[nH]c(=O)c(Cc4c(F)cc(F)cc4F)cc32)[C@@H](CN2CCO[C@H](C(=O)NCc3ccc(CNC(=O)[C@@H]4CN(C[C@H]5CN[C@H](C)CN5CC(=O)N5CC(C)(C)c6[nH]c(=O)c(Cc7c(F)cc(F)cc7F)cc65)CCO4)cc3)C2)CN1 [Compound 167, (2S,2′S)-N,N′-(1,4-phenylenebis(methylene)) bis(4-(((2R,5R)-1-(2-(3,3-dimethyl-5-oxo-6-(2,4,6-trifluorobenzyl)-2,3,4,5-tetrahydro-1H-pyrrolo[3,2-b]pyridin-1-yl)-2-oxoethyl)-5-methylpiperazin-2-yl)methyl)morpholine-2-carboxamide)] | 0.49 to 12.6 nM | 15.8 to 31.6 nM | ++++ (FS>10,000) | 22.4 to 1000 nM | 22.4 to 1000 nM |  | 7.94 to 15.8 nM | ++ (1,000>FS>100) | 1.38 to 7.94 nM | ++ (1,000>FS>100) | 10000 to 51300 nM |  | 
4 | C[C@@H]1CN(CC(=O)N2CC(C)(C)c3[nH]c(=O)c(Cc4ccc(F)cc4)cc32)[C@@H](CN2CCO[C@H](COc3cccc(OC[C@@H]4CN(C[C@H]5CN[C@H](C)CN5CC(=O)N5CC(C)(C)c6[nH]c(=O)c(Cc7ccc(F)cc7)cc65)CCO4)c3F)C2)CN1 [Example 72, 1,1′-(2,2′-((3R,3′R,6R,6′R)-(((2S,2'S)-(((2-fluoro-1,3-phenylene)bis(oxy))bis(methylene))bis(morpholine-2,4-diyl))bis(methylene))bis(3-methylpiperazine-6,1-diyl))bis(acetyl))bis(6-(4-fluorobenzyl)-3,3-dimethyl-1,2,3,4-tetrahydro-5H-pyrrolo[3,2-b]pyridin-5-one)] | 0.49 to 12.6 nM | 15.8 to 31.6 nM |  | 1000 to 3160 nM | 22.4 to 1000 nM |  | 7.94 to 15.8 nM |  | 15.8 to 31.6 nM |  |  | 10000 to 51300 nM | 
5 | C[C@@H]1CN(CC(=O)N2CC(C)(C)c3[nH]c(=O)c(Cc4ccc(F)cc4)cc32)[C@@H](CN2CCN(C(=O)c3ccc4cc(C(=O)N5CCN(C[C@H]6CN[C@H](C)CN6CC(=O)N6CC(C)(C)c7[nH]c(=O)c(Cc8ccc(F)cc8)cc76)[C@H](C)C5)ccc4c3)C[C@H]2C)CN1 [Example 18, 1,1′-(2,2′-((3R,3′R,6R,6′R)-(((2R,2′R)-(naphthalene-2,6-dicarbonyl)bis(2-methylpiperazine-4,1-diyl))bis(methylene))bis(3-methylpiperazine-6,1-diyl))bis(acetyl))bis(6-(4-fluorobenzyl)-3,3-dimethyl-1,2,3,4-tetrahydro-5H-pyrrolo[3,2-b]pyridin-5-one)] | 12.6 to 63.1 nM | 1.38 to 7.94 nM | ++++ (FS>10,000) | 1000 to 3160 nM | 1000 to 3160 nM |  | 1.38 to 7.94 nM | +++ (10,000>FS>1,000) | 1.38 to 7.94 nM | +++ (10,000>FS>1,000) |  |  | 10000 to 51300 nM
6 | C[C@@H]1CN(CC(=O)N2CC(C)(C)c3[nH]c(=O)c(Cc4ccc(F)cc4)cc32)[C@@H](CN2CCN(CCc3cn(CCCCC(=O)N4CCN(C[C@H]5CN[C@H](C)CN5CC(=O)N5CC(C)(C)c6[nH]c(=O)c(Cc7ccc(F)cc7)cc65)[C@H](C)C4)nn3)C[C@H]2C)CN1 [Compound 158] | 63.1 to 316 nM | 7.94 to 15.8 nM | ++++ (FS>10,000) | 22.4 to 1000 nM | 1000 to 3160 nM |  | 7.94 to 15.8 nM | ++ (1,000>FS>100) | 7.94 to 15.8 nM | ++ (1,000>FS>100) | 10000 to 51300 nM |  | 
7 | C[C@@H]1CN(CC(=O)N2CC(C)(C)c3[nH]c(=O)c(Cc4ccc(F)cc4)cc32)[C@@H](CN2CCC(CN(C)Cc3ccc(CN(C)CC4CCN(C[C@H]5CN[C@H](C)CN5CC(=O)N5CC(C)(C)c6[nH]c(=O)c(Cc7ccc(F)cc7)cc65)CC4)cc3)CC2)CN1 [Example 100, 1,1′-(2,2′-((3R,3′R,6R,6′R)-(((((1,4-phenylenebis(methylene))bis(methylazanediyl))bis(methylene))bis(piperidine-4,1-diyl))bis(methylene))bis(3-methylpiperazine-6,1-diyl))bis(acetyl))bis(6-(4-fluorobenzyl)-3,3-dimethyl-1,2,3,4-tetrahydro-5H-pyrrolo[3,2-b]pyridin-5-one)] | 0.49 to 12.6 nM | 15.8 to 31.6 nM | ++++ (FS>10,000) | 3160 to 10000 nM | 1000 to 3160 nM |  | 7.94 to 15.8 nM | +++ (10,000>FS>1,000) | 7.94 to 15.8 nM | +++ (10,000>FS>1,000) |  |  | 10000 to 51300 nM
8 | C[C@@H]1CN(CC(=O)N2CC(C)(C)c3[nH]c(=O)c(Cc4ccc(F)cc4)cc32)[C@@H](CN2CCN(C(=O)CCCCCCCCC(=O)N3CCN(C[C@H]4CN[C@H](C)CN4CC(=O)N4CC(C)(C)c5[nH]c(=O)c(Cc6ccc(F)cc6)cc54)[C@H](C)C3)C[C@H]2C)CN1 [Example 3, 1,10-bis((R)-4-(((2R,5R)-1-(2-(6-(4-fluorobenzyl)-3,3-dimethyl-5-oxo-2,3,4,5-tetrahydro-1H-pyrrolo[3,2-b]pyridin-1-yl)-2-oxoethyl)-5-methylpiperazin-2-yl)methyl)-3-methylpiperazin-1-yl)decane-1,10-dione] | 12.6 to 63.1 nM | 31.6 to 501 nM | +++ (10,000>FS>1,000) | 1000 to 3160 nM | 22.4 to 1000 nM |  | 7.94 to 15.8 nM | ++ (1,000>FS>100) | 15.8 to 31.6 nM | ++ (1,000>FS>100) |  |  | 10000 to 51300 nM
9 | C[C@@H]1CN(CC(=O)N2CC(C)(C)c3[nH]c(=O)c(Cc4ccc(F)cc4)cc32)[C@@H](CN2CCN(Cc3cn(CC(=O)N4CCN(C[C@H]5CN[C@H](C)CN5CC(=O)N5CC(C)(C)c6[nH]c(=O)c(Cc7ccc(F)cc7)cc65)[C@H](C)C4)nn3)C[C@H]2C)CN1 [Compound 155] | 316 to 3310 nM | 15.8 to 31.6 nM | ++++ (FS>10,000) | 1000 to 3160 nM | 1000 to 3160 nM |  | 1.38 to 7.94 nM | +++ (10,000>FS>1,000) | 7.94 to 15.8 nM | +++ (10,000>FS>1,000) | 10000 to 51300 nM |  | 
